The text below walks through data of patent publication US8252832B2, “Kinesin inhibitors as cancer therapeutics” (Novartis AG, priority 2007, dated 2012).

Read-outs that look alike come from different tables or passages of the source.

Experiment [1] has as its target T1, motor domain of human KSP (Eg 5, KNSL1) (Homo sapiens, UniProt P52732).
T1 construct: KSP motor protein (i.e., the KSP motor domain); made in house
T1 sequence (P52732 18-359 limits assumed): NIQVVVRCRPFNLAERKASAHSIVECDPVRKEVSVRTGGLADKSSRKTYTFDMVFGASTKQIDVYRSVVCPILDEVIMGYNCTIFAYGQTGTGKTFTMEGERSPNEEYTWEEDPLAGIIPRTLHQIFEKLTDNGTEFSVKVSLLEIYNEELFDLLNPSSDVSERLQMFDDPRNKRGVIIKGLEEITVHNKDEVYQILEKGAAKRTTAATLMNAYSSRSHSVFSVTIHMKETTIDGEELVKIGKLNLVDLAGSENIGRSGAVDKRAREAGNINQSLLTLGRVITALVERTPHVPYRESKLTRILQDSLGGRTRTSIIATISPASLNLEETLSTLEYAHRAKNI
The experiment in a line: Assay for determining KSP activity (microtubule/KSP ATPase, Biomol Green). It counts as biochemical. The conditions noted are these: read-out: In vitro activity (IC-50 - nm). On the procedure: Purified microtubules obtained from bovine brain were purchased from Cytoskeleton Inc. (Denver, Colo., USA). The motor domain of human KSP (Eg 5, KNSL1) was cloned, expressed, and purified to greater than 95% homogeneity. Biomol Green™ was purchased from Affinity Research Products Ltd. (Matford Court, Exeter, Devon, United Kingdom). Microtubules and KSP motor protein (i.e., the KSP motor domain) were diluted in assay buffer (20 mM Tris-HCl (pH 7.5), 1 mM MgCl2, 10 mM DTT and 0.25 mg/mL BSA) to a final concentration of 35 μg/mL microtubules and 45 nM KSP. The microtubule/KSP mixture was then pre-incubated at 37° C. for 10 min to promote the binding of KSP to microtubules.
To each well of the testing plate (384-well plate) containing 1.25 μL of inhibitor or test compound in DMSO (or DMSO only, in the case of controls) were added 25 μL of ATP solution (ATP diluted to a concentration of 300 μM in assay buffer) and 25 μL of the above-described microtubule/KSP solution. The plates were incubated at RT for 1 hour. Following incubation, 65 μL of Biomol Green™ (a malachite green-based dye that detects the release of inorganic phosphate) was added to each well. The plates were incubated for an additional 5-10 minutes then the absorbance at 630 nm was determined using a Victor II plate reader. The amount of absorbance at 630 nm corresponded to the amount of KSP activity in the samples. The IC50 of each inhibitor or test compound was then determined based on the decrease in absorbance at 630 nm at each concentration, via nonlinear regression using either XLFit for Excel or Prism data analysis software by GraphPad Software Inc.

The test system of experiment [2] is NCI60 panel of cell lines. The experiment in a line: CellTiter-Glo, NCI60 panel, mean of panel. It counts as cell-based. An excerpt: Identification of tumor types that are the most sensitive to the KSP inhibitors of the present invention can be accomplished using an unbiased approach that uses several cell-based assays. The assays chosen were as follows: • CellTiter-Glo®. This is an assay designed to measure ATP concentration in a cell culture, and can be correlated to cell number. Briefly CellTiter-Glo® (Promega Corporation) is a homogeneous method using the single CellTiter-Glo® reagent to detect ATP wherein ATP in the assay drives the activity of a thermostable luciferase to create a luminescent signal which can then be measured and correlated with the number of viable cells. Briefly, for adherent cells, 1,000 to 5,000 cells/well were plated in 96-well plates (100 μl/well) and let to adhere for 24 hours before being treated with drug. For non-adherent cells, 1,000 to 10,000 cells/well were plated in 96-well plates (100 μl/well) and immediately treated with drug. Drug dilutions were prepared in DMSO at 1000 times the final concentration. These dilutions were then diluted 1/100 in growth media before being added to the cells (11 μl/well) to achieve the desired final concentration. […] The enzymatic reaction is coupled to a chemical reaction that uses a tetrazolium salt to form a formazan that is red and can be detected by its absorbance at 490 nm. […]
In general terms: ATP-based viability assays read luminescence as a measure of living cells.

One may read the GI50 as the concentration at which growth is held to half of that of the control. With `CC(C)(C)[C@H](c1nc(-c2cc(F)ccc2F)cn1Cc1ccccc1)N(CC[C@H](N)CF)C(=O)CO` [Compound IIa], the IC50 in experiment [1] was 0.8 nM. Moreover, the GI50 in experiment [2] (GI50 in nM, read-out: Log(GI50), arithmetic mean of panel (converted)) is 2.14 nM; in experiment [2] (read-out: GI50, geometric mean of panel), 2.14 nM.
